Data from PMC6003104, “Discovery of a Short‐Chain Dehydrogenase from Catharanthus roseus that Produces a New Monoterpene Indole Alkaloid” (Chembiochem, 2018).

Biological target: T1, vitrosamine synthase (VAS, Cro013448) (Catharanthus roseus, UniProt A0A0C5DR25)
T1 construct: N-terminal His6 tag (pOPINF) kept; E. coli SoluBL21; calculated 34469 Da; monomer in solution, dimer in crystal; modelled residues 7-299
Test: X-ray crystal structure, […] Å
Type: binding
Conditions: co-purified from E. coli as holoenzyme; crystals pH 4.0, 20 °C; active site, next to Ser167/Tyr223/Lys227

T1 sequence (A0A0C5DR25 entry or part of it): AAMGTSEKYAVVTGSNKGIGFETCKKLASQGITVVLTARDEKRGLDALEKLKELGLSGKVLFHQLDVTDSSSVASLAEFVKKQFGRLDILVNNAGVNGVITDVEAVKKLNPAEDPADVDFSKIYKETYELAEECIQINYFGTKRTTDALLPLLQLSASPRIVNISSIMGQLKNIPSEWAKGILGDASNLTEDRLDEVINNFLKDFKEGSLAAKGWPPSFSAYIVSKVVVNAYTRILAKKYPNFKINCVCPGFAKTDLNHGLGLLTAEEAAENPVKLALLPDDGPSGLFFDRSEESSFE

NC(=O)c1ccc[n+]([C@@H]2O[C@H](COP(=O)(O)OP(=O)(O)OC[C@H]3O[C@@H](n4cnc5c(N)ncnc54)[C@H](OP(=O)(O)O)[C@@H]3O)[C@@H](O)[C@H]2O)c1 [NADP+]
X-ray crystal structure, 1.55 Å: the apo enzyme active site also had a high occupancy of NADP^+
